Reference: publication PMC10914731, “Homo-BacPROTAC-induced degradation of ClpC1 as a strategy against drug-resistant mycobacteria” (Nature Communications, 2024)
≈ marks a conversion by molar mass, not a printed value. Where “and” joins values, the source holds several entries; their conditions need not be identical. Identical values can stand only once. Like-named read-outs stand apart in the source and are kept apart here. *1 amine or outer side, *2 acyl side, *3 side chain or, on linkers, in order; H or OH if unused. Where a SMILES comes first, the peptide text is derived from it. [ ]: non-standard residue; d: D form. X7 = C=CCn1cc(C[C@H](N[*:1])C(=O)[*:2])c2ccccc21; NMeLeu(5-OH,4R) = CN[C@@H](C[C@@H](C)CO)C(=O)O; Phe(βR-OMe) = CO[C@H](c1ccccc1)[C@H](N)C(=O)O; NMeL = CN[C@@H](CC(C)C)C(=O)O

Key:
[1] = test system: Mtb # 8673; assay: microbe, parasite or virus in culture; assay type: cell-based
[2] = test system: Mtb # 11291; assay: microbe, parasite or virus in culture; assay type: cell-based; settings: for MIC: read-out: MIC Mtb # 11291
[3] = test system: Mtb ATCC 35825; assay: microbe, parasite or virus in culture; assay type: cell-based
[4] = test system: Mycobacterium avium; assay: microbe, parasite or virus in culture; assay type: cell-based
[5] = test system: Mycobacterium intracellulare; assay: microbe, parasite or virus in culture; assay type: cell-based
[6] = test system: Mycobacterium fortuitum; assay: microbe, parasite or virus in culture; assay type: cell-based
[7] = test system: Mycobacterium abscessus; assay: microbe, parasite or virus in culture; assay type: cell-based
[8] = target: ClpC1 NTD protein (M. tuberculosis) (Mycobacterium tuberculosis, UniProt P9WPC9); assay: biochemical; assay type: binding
Chain of ClpC1 NTD protein (M. tuberculosis) (P9WPC9 1-156, looked up, natural form): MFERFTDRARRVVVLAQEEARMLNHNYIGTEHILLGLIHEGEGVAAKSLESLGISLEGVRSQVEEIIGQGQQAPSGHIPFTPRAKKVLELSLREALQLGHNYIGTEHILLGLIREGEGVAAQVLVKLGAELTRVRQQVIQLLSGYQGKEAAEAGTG

[9] = Hepatocyte stability, mice; assay type: in vitro ADME
In short: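 Clearance, expressed as % of liver blood flow (% Qh), derived from parent-compound half-life by the well-stirred model, with HPLC-MS/MS quantitation after acetonitrile quench. Test compound at 1 µM final added to mouse hepatocyte suspension in 50% serum after 15–30 min acclimation at 37 °C; six samples over up to 6 h.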

[10] = assay type: in vitro ADME, Human
[11] = assay type: in vitro ADME, Rat
Protocol: (§1) The kinetics of compound degradation in liver microsomes is assessed in an assay with 1 µmol/l of compound and 0.5 mg/ml liver microsomes in a medium of 100 mM Tris-HCl pH 7.5, 6.5 mM MgCl2 and 1 mM NADPH at 37 °C. The reaction is stopped at multiple time points by adding acetonitrile. After centrifugation, the compound concentration is measured in the supernatants by high-performance liquid chromatography (HPLC) tandem mass spectrometry (MS/MS). The results are fitted to a first-order decay and the half-lives are converted to clearance (stated as % of the liver blood flow (%Qh)) using the well-stirred liver model.

[12] = assay type: in vitro ADME, Rat; remark: listed apart in the source
[13] = assay type: in vitro ADME, Mice
Protocol: as §1

[14] = Microsomal stability, human; assay type: in vitro ADME
Protocol: as §1

[15] = in vitro; settings: human
In short: (§2)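 Permeability across Caco-2 monolayers was measured in both directions, apical-to-basolateral and basolateral-to-apical, in 10^-6 cm s-1. Efflux ratio = P(B−A)/P(A−B). Intrinsic permeability is the mean of P(A−B) and P(B−A).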

[16] = test system: Caco-2 monolayers; assay: in vitro
In short: as §2

[17] = Mycobacterium tuberculosis, mean, n = 2 well replicates
[18] = Mycobacterium tuberculosis, single well replicates
[19] = Mycobacterium tuberculosis, ATCC35825, mean, n = 2 well replicates
[20] = Mycobacterium tuberculosis, ATCC35825, single well replicates
[21] = Experiment 2, three replicate columns

[H]/N=C(/N)N[C@H]1[C@H](O)[C@@H](O)[C@H](O[C@@H]2O[C@@H](C)[C@](O)(C=O)[C@H]2O[C@@H]2O[C@@H](CO)[C@H](O)[C@@H](O)[C@@H]2NC)[C@@H](N/C(N)=N\[H])[C@@H]1O [Streptomycin]
MIC [1, 17]: 6.9 µM and 4 µg/mL
MIC [1, 18]: 6.88 µM and 4 µg/mL
MIC ([1]; single well replicates): 6.88 µM (≈ 4 µg/mL)
MIC Mtb # 8673 ([1]; single well replicates): 4 mg/L (≈ 6.88 µM)
MIC [2, 17]: 0.4 µM and 0.3 µg/mL
MIC [2, 18]: 0.43 µM and 0.25 µg/mL
MIC Mtb # 11291 ([2]; single well replicates): 0.25 mg/L (≈ 0.43 µM)
MIC ([2]; single well replicates): 0.43 µM (≈ 0.25 µg/mL)
MIC [3, 19]: 27.5 µM and 16 µg/mL
MIC [3, 20]: 16 µg/mL and 27.5 µM
MIC ([3]; single well replicates): 27.51 µM (≈ 16 µg/mL)
MIC Mtb ATCC 35825 ([3]; single well replicates): 16 mg/L (≈ 27.5 µM)

NCC[C@H](O)C(=O)N[C@@H]1C[C@H](N)[C@@H](O[C@H]2O[C@H](CN)[C@@H](O)[C@H](O)[C@H]2O)[C@H](O)[C@H]1O[C@H]1O[C@H](CO)[C@@H](O)[C@H](N)[C@H]1O [Amikacin, reference compound]
MIC (µg/ml) Mycobacterium avium [4, 21]: 1 µg/mL (≈ 1.71 µM)
MIC ([4]; Experiment 2, three replicate columns, read-out: MIC (µM) Mycobacterium avium): 1.71 µM
MIC ([4]; Mycobacterium avium, Experiment 2, three replicate columns, read-out: MIC (µM) Mycobacterium avium): 1.71 µM
MIC ([4]; Mycobacterium avium, Experiment 2, three replicate columns, read-out: MIC (µg/ml) Mycobacterium avium): 1 µg/mL
MIC ([4]; Mycobacterium avium, mean ± SD, read-out: MIC Mycobacterium avium): 1.7 µM
MIC (µg/ml) Mycobacterium intracellulare [5, 21]: 0.50 µg/mL (≈ 0.854 µM)
MIC ([5]; Experiment 2, three replicate columns, read-out: MIC (µM) Mycobacterium intracellulare): 0.85 µM
MIC ([5]; Mycobacterium intracellulare, Experiment 2, three replicate columns, read-out: MIC (µM) Mycobacterium intracellulare): 0.85 µM
MIC ([5]; Mycobacterium intracellulare, Experiment 2, three replicate columns, read-out: MIC (µg/ml) Mycobacterium intracellulare): 0.5 µg/mL
MIC ([5]; Mycobacterium intracellulare, mean ± SD, read-out: MIC Mycobacterium intracellulare): 0.9 µM
MIC (µg/ml) Mycobacterium fortuitum [6, 21]: 0.25 µg/mL (≈ 0.427 µM)
MIC ([6]; Experiment 2, three replicate columns, read-out: MIC (µM) Mycobacterium fortuitum): 0.43 µM
MIC ([6]; Mycolicibacterium fortuitum, Experiment 2, three replicate columns, read-out: MIC (µM) Mycobacterium fortuitum): 0.43 µM
MIC ([6]; Mycolicibacterium fortuitum, Experiment 2, three replicate columns, read-out: MIC (µg/ml) Mycobacterium fortuitum): 0.25 µg/mL
MIC ([6]; Mycolicibacterium fortuitum, mean ± SD, read-out: MIC Mycobacterium fortuitum): 0.4 µM
MIC [1, 17]: > 219 µM and > 128 µg/mL
MIC [1, 18]: > 219 µM and > 128 µg/mL
MIC ([1]; single well replicates): >218.58 µM
MIC Mtb # 8673 ([1]; single well replicates): >128 mg/L
MIC [2, 17]: 3.4 µM and 2 µg/mL
MIC [2, 18]: 3.42 µM and 2 µg/mL
MIC Mtb # 11291 ([2]; single well replicates): 2 mg/L (≈ 3.42 µM)
MIC ([2]; single well replicates): 3.42 µM (≈ 2 µg/mL)
MIC [3, 19]: 0.1 µM and 0.03 µg/mL
MIC [3, 20]: 0.03 µg/mL and 0.05 µM
MIC ([3]; single well replicates): 0.05 µM (≈ 0.0293 µg/mL)
MIC Mtb ATCC 35825 ([3]; single well replicates): 0.03 mg/L (≈ 0.0512 µM)
MIC (µg/ml) Mycobacterium abscessus [7, 21]: 2 µg/mL (≈ 3.42 µM)
MIC ([7]; Experiment 2, three replicate columns, read-out: MIC (µM) Mycobacterium abscessus): 3.42 µM
MIC ([7]; Mycobacteroides abscessus, Experiment 2, three replicate columns, read-out: MIC (µM) Mycobacterium abscessus): 3.42 µM
MIC ([7]; Mycobacteroides abscessus, Experiment 2, three replicate columns, read-out: MIC (µg/ml) Mycobacterium abscessus): 2 µg/mL
MIC ([7]; Mycobacteroides abscessus, mean ± SD, read-out: MIC Mycobacterium abscessus): 3.4 µM

CC(=O)Nc1ccc(/C=N/NC(N)=S)cc1 [Thiacetazone]
MIC [1, 17]: > 542 µM and > 128 µg/mL
MIC [1, 18]: > 542 µM and > 128 µg/mL
MIC ([1]; single well replicates): >541.68 µM
MIC Mtb # 8673 ([1]; single well replicates): >128 mg/L
MIC [2, 17]: 4.2 µM and 1 µg/mL
MIC [2, 18]: 4.23 µM and 1 µg/mL
MIC Mtb # 11291 ([2]; single well replicates): 1 mg/L (≈ 4.23 µM)
MIC ([2]; single well replicates): 4.23 µM (≈ 1 µg/mL)
MIC [3, 19]: 4.2 µM and 1 µg/mL
MIC [3, 20]: 1 µg/mL and 4.23 µM
MIC ([3]; single well replicates): 4.23 µM (≈ 1 µg/mL)
MIC Mtb ATCC 35825 ([3]; single well replicates): 1 mg/L (≈ 4.23 µM)

Nc1ccc(C(=O)O)c(O)c1 [p-Aminosalicylic acid]
MIC [1, 17]: 6.5 µM and 1 µg/mL
MIC [1, 18]: 6.53 µM and 1 µg/mL
MIC ([1]; single well replicates): 6.53 µM (≈ 1 µg/mL)
MIC Mtb # 8673 ([1]; single well replicates): 1 mg/L (≈ 6.53 µM)
MIC Mtb # 11291 ([2]; single well replicates): 1 mg/L (≈ 6.53 µM)
MIC ([2]; single well replicates): 6.53 µM (≈ 1 µg/mL)
MIC [3, 19]: 104 µM and 16 µg/mL
MIC [3, 20]: 16 µg/mL and 104 µM
MIC ([3]; single well replicates): 104.48 µM (≈ 16 µg/mL)
MIC Mtb ATCC 35825 ([3]; single well replicates): 16 mg/L (≈ 104 µM)

C=CCn1cc(C[C@@H]2NC(=O)[C@H](C(C)C)NC(=O)[C@H](CC(C)C)N(C)C(=O)[C@H](C(C)C)NC(=O)[C@H]([C@H](OC)c3ccccc3)NC(=O)[C@H](C)NC(=O)[C@H](C[C@@H](C)CO)N(C)C2=O)c2ccccc21 [Compound 13] (cyclo(A[Phe(βR-OMe)]V[NMeL]V[X7][NMeLeu(5-OH,4R)]))
Kd ([8]; SPR (Supplementary Table 1), read-out: KD ClpC1-NTD Mean ± SD): 3.6 ± 0.2 nM
koff ClpC1-NTD ([8]; SPR, single independent measurements): 0.1 s⁻¹
Kd ([8]; SPR, single independent measurements, read-out: KD ClpC1-NTD): 3.66 nM and 3.44 nM
koff ([8]; SPR, single independent measurements, read-out: koff ClpC1-NTD): 0.07 s⁻¹
Hepatocyte Stability Mouse QH ([9]; Mouse): 58.852%
Hepatocyte Mice ([9]; clearance in hepatocytes): 59 %Qh
Hepatocyte Stability Human QH ([10]; Human): 18.968%
Hepatocyte Human ([10]; clearance in hepatocytes): 19 %Qh
Microsomal Stability Rat QH ([11]; Rat): >87.900%
Microsomal Stability Rat ([11]; clearance in microsomes): > 88 %Qh
Hepatocyte Stability Rat QH ([12]; Rat): 65.282%
Hepatocyte Rat ([12]; clearance in hepatocytes): 65 %Qh
Microsomal Stability Mouse QH ([13]; Mouse): >88.400%
Microsomal Stability Mice ([13]; clearance in microsomes): > 88 %Qh
Microsomal Stability Human QH ([14]; Human): >88.400%
Microsomal Stability Human ([14]; clearance in microsomes): > 88 %Qh
efflux ratio ([15]; Caco-2): 7.9
Papp A→B ([15]; Caco-2, CACO permeability PEAB, apical to basolateral): 45 nm/s
Papp B→A ([15]; Caco-2, CACO permeability PEBA, basolateral to apical): 330 nm/s
CACO permeability PEAB ([16]; apical to basolateral): 24 nm/s
CACO permeability PEBA ([16]; basolateral to apical): 189.99999999999998 nm/s
Caco-2 Int. Perm ([16]; mean value of P(A−B) and P(B−A)): 10.7 10-6 cm s-1
